“Also recorded” adds a separate entry of the source.
Assays:
MCaIV tumors = assay: Intravital microscopy of MCaIV tumors under iNOS inhibition; format: in vivo, mice; settings: 1400 W 10 mg/kg/day by osmotic pump vs saline, 7 days
From the text: FIGS. 12A-E show the effect of iNOS inhibition in MCaIV tumors and blood vessel morphology and function in MCaIV tumors. (A) Fluorescence immunohistochemistry image of iNOS expression (green), F4/80 positive macrophages (red) and DAPI stained nuclei (blue) in MCaIV tumors grown in the mammary fat pad. The bar indicates 50 μm. (B-C) MPLSM images of MCaIV tumors grown in αSMA^P-GFP mice treated with saline control (B) or an iNOS inhibitor 1400 W (C). Functional blood vessels were contrast-enhanced by i.v. injection of tetramethylrhodamine-dextran (red). αSMA-positive perivascular cells were visualized by GFP fluorescence (green). The bars indicate 100 μm. (D-E) MCaIV tumors grown in αSMAP-GFP mice were treated with saline (control) or iNOS inhibitor (1400 W) for 7 days. (D) Perivascular cell coverage. (N=4, each). (E) Vascular permeability (N=7, each). Data are mean±SEM. *p<0.05 vs. control.
Breast cancer cells in MCaIV murine mammary tumor model express iNOS similar to many human tumors, in contrast to the U87MG glioma model, in which tumor cells predominantly express neuronal NOS (nNOS). MCaIV tumors grown orthotopically in the mammary fat pad express iNOS and to a much lesser extent eNOS as determined by real time RT-PCR. […] Inhibition of iNOS would eliminate the majority of non-vascular NO production. […]

10T1/2 cells = assay: cGMP production in cultured 10T1/2 cells; format: cell-based; settings: 100 μM
Method: FIGS. 13A-C show the role of the NO-sGC-cGMP pathway in perivascular cell recruitment and migration. (A) In bar graph form, cGMP production in cultured 10T1/2 cells in response to NO donor or PDE5 inhibitor. (B) In bar graph form, the migration of 10T1/2 cells in a transwell assay. 10T1/2 cell migration was assessed using Falcon HTS FluoroBlok inserts with 1 μm pores. GFP-expressing 10T1/2 cells were inoculated in the inserts, and HUVECs were inoculated in the outer well. Percent area of transwell filter covered by migrated 10T1/2 cells was determined. Medium only indicates no HUVECs in the outer well. ODQ, T-1032, Sildenafil, or Sildenafil+L-NMMA were added to the medium. *P<0.05 vs. control (HUVEC). (C) Images for transmigrated GFP-10T1/2 cells at the back side of the Fluoroblock insert after 10 hours with control vs. T-1032 treatment.
cGMP levels were examined in 10T1/2 cells following treatments of an NO donor DETANONOate or an inhibitor for phosphodiesterase 5 (PDE5), an enzyme which degrades cGMP.

GL261 tumors = assay: Vessel morphology and function of GL261 tumors in the cranial window; format: in vivo; settings: L-NPA vs saline, SCID mice
Method: FIGS. 7A-E show NOS expression in GL261 tumors and the effect of an nNOS selective inhibitor on vessel morphology and function in GL261 tumors. (A) NOS expression in GL261 tumors grown in the cranial window in SCID mice. Five micron paraffin block sections were immunostained using antibodies to eNOS, nNOS, iNOS or non-specific mouse IgG. The bar indicates 100 μm. Different from U87MG tumors, GL261 tumor cells express all three isoforms of NOS, especially strong expression of eNOS. (B) MPLSM microangiographies of GL261 tumors treated with saline and L-NPA. The bar indicates 200 μm. (C-D) Quantification of 3-D vessel density (C) and diameter (D) using MPLSM image stack and an automated image analysis system. N=6 each. (E) Microvascular permeability in GL261 tumors treated with saline (N=6) and L-NPA (N=6) was measured by intravital microscopy using tetramethylrhodamine-BSA. […]
(§1) Angiogenesis and vessel morphology were determined in U87 and GL261 tumors grown in the cranial windows by intravital microscopy using multiphoton laserscanning microscopy (MPLSM) or single photon fluorescence microscopy (SPFM) when tumors reached about 7 mm^2. […] Using MPLSM, five locations with 200-μm thick imaging stack were recorded for each tumor. […]
The effective vascular permeability (P) was determined by SPFM as described previously (Fukumura, D., et al. 2001 Proc Natl Acad Sci USA 98, 2604-2609). […]

U87MG tumors [1] = assay: Microvascular permeability of U87 tumors by intravital microscopy with tetramethylrhodamine-BSA; format: in vivo, mice; settings: L-NPA 20 mg/kg daily i.p. vs saline, cranial window
Method: To lower NO production from all NOS isoforms in the gliomas, mice received a pan-NOS inhibitor NG-Monomethyl-L-arginine monoacetate (L-NMMA) (Alexis Corp.) or non-active control compound D-NMMA (Alexis Corp.) at the rate of 7 mg/day by a constant release micro-osmotic pump (Model 1002, Alzet Osmotic Pumps, Durect Corp.) (Kashiwagi, S., et al. 2005 J. Clin. Invest. 115, 1816-1827). The micro-osmotic pumps were implanted in the back of the animals one day before the implantation of tumors. […]
The effective vascular permeability (P) was determined by SPFM as described previously (Fukumura, D., et al. 2001 Proc Natl Acad Sci USA 98, 2604-2609). In brief, the fluorescence intensity of the tumor tissue was intermittently measured for 20 min after the injection of tetramethylrhodamine-labeled bovine serum albumin (10 mg/ml, 0.1 ml per 25 g body weight). Permeability was calculated as P=(1−HT) V/S [1/(I0−Ib)*dI/dt+1/K], where I is the average fluorescence intensity of the whole image, I0 is the initial fluorescence intensity, and Ib is the background fluorescence intensity, HT is hematocrit, V and S are the total volume and surface area of vessels within the tissue volume covered by the surface image, respectively, and K is the time constant of BSA plasma clearance (Fukumura, D., et al. 2001 Proc Natl Acad Sci USA 98, 2604-2609).

U87MG tumors [2] = assay: Vessel morphology of U87 tumors in the cranial window by intravital microscopy; format: in vivo, mice; settings: L-NPA 20 mg/kg daily i.p. vs saline, cranial window
Method: Recombination activating gene 1 (Rag-1^−/−) mice backcrossed to C57BL/6 background or severe combined immunodeficiency (SCID) mice, bred and maintained in an gnotobiotic animal facility, were used. To obtain source tumor tissue, U87 tumor cells in culture (1×10^6 cells) were injected subcutaneously into Rag-1^−/− or SCID mice matching the recipient mice. When the tumor reached about 8 mm in diameter, it was excised after euthanasia and a small piece (about 1 mm^3) of viable tumor tissue was implanted into a cranial window or subcutaneously into the calf area of the right hindlegs of the mice as previously described (Kashiwagi, S., et al. 2005 J. Clin. Invest. 115, 1816-1827; Kozin, S. V., et al. 2001 Cancer Research 61, 39-44). All animal procedures were carried oat following the Public Health Service Policy on Humane Care of Laboratory Animals and approved by the Institutional Animal Care and Use Committee of Massachusetts General Hospital. […]
as §1
Vascular parameters such as functional vessel density (the total length of perfused microvessels per unit area) and vessel diameter were analyzed by tracing each vessel segment using NIH image 1.63 as described elsewhere (Kashiwagi, S., et al. 2005 J. Clin. Invest. 115, 1816-1827). Tissue distribution of NO was visualized using MPLSM and the NO-sensitive fluorescence probe 4,5-diaminofluorescein (DAF-2) (0.5 mg i.v. Daiichi Pure Chemicals Co. Ltd) as described previously (Kashiwagi, S., et al. 2005 J. Clin. Invest. 115, 1816-1827). NO converts DAF-2 to 4,5-diaminofluorescein triazolium (DAF-2T) increasing fluorescence by a factor of 200. The DAF-2 associated fluorescence images were captured 60 min after i.v. injection. […]

Question: How did the vascular permeability (MCaIV tumors) turn out when CC(=N)NCc1cccc(CN)c1 [1400 W, N-(3-(Aminomethyl)benzyl) acetamidine] was run?
Answer: significantly lower

Question: What about the perivascular cell coverage (MCaIV tumors; αSMAP-GFP mice) of the same molecule?
Answer: significantly increased

Question: With NCCN(CCN)/[N+]([O-])=N/O [DETANONOate] as the molecule, how does the cGMP level (10T1/2 cells) read?
Answer: increased

Question: For CCCN=C(N)NCCC[C@H](N)C(=O)O [L-NPA, NG propyl-L-arginine], which “tumor vasculature (vessel morphology and function)” value (GL261 tumors) is on record?
Answer: did not improve; also recorded: did not alter

Question: What about the vascular permeability (U87MG tumors [1]) of the same molecule?
Answer: decreased

Question: And the vessel density (U87MG tumors [2])?
Answer: increased
